Columns and labels:
[1] = test system: acetylcholine-induced bronchospasm; test: Bronchorelaxation in vivo: acetylcholine-induced bronchoconstriction in Brown Norway rats, RL and Cdyn (C-3.2); set-up: species or system rat; settings: inhaled 60 minutes before provocation; tiotropium 1 μg/kg; comparative example 11 1, 10 and 100 μg/kg
Procedure: The bronchoconstriction model (see Hoymann H G. Lung function measurements in rodents in safety pharmacology studies. Front Pharmacol 2012; 3:156) used Male Brown Norway rats (Charles River, Sulzfeld, Germany; 10-12 weeks old) randomized to three treatment groups (comparative example 11, 1 μg/kg, 10 μg/kg, and 100 μg/kg; n=12-13), one positive control group (tiotropium 1 μg/kg; n=12), and one vehicle control group (n=17). Animals were treated with the inhaled test compounds 60 minutes before provocation. Comparative example 11, vehicle, or tiotropium were aerosolized using a micro feeding system and a dispersion nozzle operated with pressurized air. The aerosol concentration was determined by filter sampling with gravimetrical analysis and monitored continuously by a photometer. The lung-deposited doses were assessed from the inhalation dose (Raabe O G, Al-Bayati M A, Teague S V, Rasolt A. Regional Deposition of Inhaled Monodisperse Coarse and Fine Aerosol Particles in Small Laboratory Animals. The Annals of Occupational Hygiene 1988; 32:53-63.). […] After reaching a steady state in respiration, lung function of the spontaneously breathing animal was recorded as baseline values for ≥2 minutes; amongst other parameters, lung resistance (=RL) and dynamic compliance (=Cdyn) were used to assess bronchoconstriction. […]

[2] = test system: plasma proteins; test: Protein binding via Transil assay, dog plasma; format: in vitro ADME; settings: dog plasma
From the text: The distribution of a test substance between Transil® (phosphatidylcholine lipid bilayers immobilized on silica beads) and plasma is a characteristic feature of any pharmaceutical compound and is dependent on its extent of binding to plasma proteins. By comparing the distribution between Transil® and buffer with the distribution between Transil® and plasma of any species of interest, the unbound fraction in the plasma of the respective animal species can be calculated in vitro. The respective plasma and buffer concentrations were determined via a radioactivity analysis. A detailed description of the method and its validation was published by Schuhmacher et al. (2).

[3] = Phase I, healthy male subjects, 7 days inhalation: plasma concentrations over time (C-4.1); format: in vivo, human; settings: all doses administered
Procedure: Healthy White male subjects, aged 18 to 45 years and with a body mass index (BMI) above/equal 18.5 and below/equal 29.9 kg/m2 were treated in a clinical pharmacological phase I study on seven days with inhaled once daily doses of 480 μg or 1000 μg or 2000 μg (2 capsules of 1000 μg) (nominal dose) of dry powder formulations of example 2 or Placebo. The subjects inhaled the drug powder from capsules (see under D-1, e.g. tables 22 and 23) inserted into a handheld inhalation device by one deep inhalative breath. The dry powder formulation of the drug is dispersed into the airstream and fine particles are transported into the deep parts of the lung where it is intended to cause a vasodilation of the blood vessels in PH patients for a substantial reduction of increased blood pressure in the central pulmonary blood vessels in PAH patients or other subtypes of PH. This effect cannot be shown in subjects with healthy lungs. In addition inhaled drug causes a dilation of the bronchial airways and thus also improves disease states of lung diseases in PH patients with pathological bronchoconstriction. This effect was measured via bodyplethysmography as reduction of Specific Airway Resistance in healthy subjects. […]

| Compound | bronchodilatory efficacy (RL) [1] | fraction unbound, times lower than comparative example 1 [2] [times] | persistence of measurable plasma concentration after first inhalation [3] [h] |
| --- | --- | --- | --- |
| O=C(O)c1ccc(CCN(CCc2ccccc2OCc2ccc(-c3ccc(C(F)(F)F)cc3)cc2Cl)[C@H]2CCCc3nc(C(=O)O)ccc32)cc1 [comparative example 11, (5S)-5-{[2-(4-carboxyphenyl)ethyl][2-(2-{[3-chloro-4′-(trifluoromethyl)[biphenyl]-4-yl]methoxy}phenyl)ethyl]amino}-5,6,7,8-tetrahydroquinoline-2-carboxylic acid] | dose-dependent significant (1, 10 and 100 μg/kg) bronchodilating effect | 10 |  |
| O=C(O)c1ccc(CCN(CCc2ccccc2OCc2ccc(-c3ccc(C(F)(F)F)cc3)cc2Cl)[C@H]2CCCc3nc(C(=O)O)ccc32)cc1 [example 2, (5S)-{[2-(4-Carboxyphenyl)ethyl][2-(2-{[3-chloro-4′-(trifluoromethyl)biphenyl-4-yl]methoxy}phenyl)-ethyl]amino}-5,6,7,8-tetrahydroquinoline-2-carboxylic acid] |  |  | 48 |
